Measured values: paper PMC12668289 (RSC Chemical Biology, 2025)
Where “and” joins values, the source holds several entries; their conditions need not be identical. Equal entries are not always repeated.

Key:
Fluc [1] = target: T1, Fluc (Photinus pyralis, UniProt P08659); details: with Fluc; cited from earlier work
Eluc [2] = assay: Steady-state kinetics of luciferase reactions (luminometer); format: biochemical, Pyrearinus termitilluminans; details: for appKm: pH 8.0, 25 °C; for Relative kcat: relative to 2a compound
Procedure: (§1) 1.5 Bioluminescence characterizations
(§2) Reactions of luciferases, including Photinus pyralis luciferase (Fluc), Phrixothrix hirtus luciferase (SLR), Pyrearinus termitilluminans […]
(§3) mM D-LH 2 analogues, 3 mM ATP, 6 mM MgCl2, and 10 µM luciferase in 0.2 ml of 100 mM HEPES-NaOH pH 8.0. The bioluminescence (BL) emission characteristics were recorded using a microplate reader in a BL mode (Thermo Scientific, Varioskan, LUX multimode). […]
BL of the
(§4) The reactions were initiated by mixing 25 µl of premixed solution of luciferases/D-LH 2 analogues with 125 µl of 3 mM ATP and 6 mM MgCl2 in 100 mM HEPES-NaOH (pH 8.0). The light intensity (relative light unit, RLU) during 0-300 sec was then collected to represent the overall luciferase activity which was further used for calculating kinetic parameters from the Michaelis-Menten equation. […]

[3] = Absorption and fluorescence spectra of luciferins; format: physicochemical; details: 100 mM HEPES pH 8.0, 25 °C
Procedure: 2.6 Spectra of firefly luciferins
spectrophotometer (Agilent technologies, Cary 100 UV Vis, Cary Series UV-Vis Spectrophotometer).
were recorded by a microplate reader (Thermo Scientific, Varioskan, LUX multimode) in fluorescence mode. The reactions of D-LH 2 […]
Supplementary Table S5. […]
[e] ND denotes “not detectable”. […]

Pmluc-WT [4] = assay: Steady-state kinetics of luciferase reactions (luminometer); format: biochemical, Pyrocoelia miyako; details: for appKm: pH 8.0, 25 °C; for Relative kcat: relative to 2a compound
Procedure: as §1, §2, §3
BL of the
as §4

Pmluc-N230S [5] = assay: BL emission spectra of luciferase-luciferin reactions; format: biochemical, Pyrocoelia miyako; details: 100 mM HEPES pH 8.0, 25 °C
Fluc [6] = target: T1, Fluc; assay: as above; format: biochemical; details: 100 mM HEPES pH 8.0, 25 °C
Procedure: as §1, §2, §3
(§5) sphere-based multichannel spectrometer with a charge-coupled device (CCD) detector. […]

Pmluc-N230S [7] = assay: Steady-state kinetics of luciferase reactions (luminometer); format: biochemical, Pyrocoelia miyako; details: Pmluc-N230S; for appKm: pH 8.0, 25 °C; for Relative kcat: relative to 2a compound
Procedure: as §1, §2, §3
BL of the
as §4

SLR [8] = assay: as above; format: biochemical, Phrixothrix hirtus; details: for appKm: pH 8.0, 25 °C; for Relative kcat: relative to 2a compound
Procedure: as §1, §2, §3
BL of the
as §4

SLR [9] = assay: BL emission spectra of luciferase-luciferin reactions; format: biochemical, Phrixothrix hirtus; details: 100 mM HEPES pH 8.0, 25 °C
Procedure: as §1, §2, §3, §5

Fluc [10] = target: T1, Fluc; assay: Steady-state kinetics of luciferase reactions (luminometer); format: biochemical; details: for appKm: pH 8.0, 25 °C; for Relative kcat: relative to 2a compound
Procedure: as §1, §2, §3
BL of the
as §4

Eluc [11] = assay: BL emission spectra of luciferase-luciferin reactions; format: biochemical, Pyrearinus termitilluminans; details: 100 mM HEPES pH 8.0, 25 °C
Procedure: as §1, §2, §3, §5

Fluc [12] = target: T1, Fluc; assay: biochemical; format: binding; details: ITC
Fluc [13] = target: T1, Fluc; assay: Stopped-flow luminometry, single turnover light formation and decay; format: biochemical; details: Fluc single turnover, 25 °C
Procedure: 1.5 Bioluminescence characterizations […]
One syringe was filled with a solution of 50 µM Fluc, 3 mM ATP, and 6 mM
in both syringes were mixed by a stopped-flow device and measured the light emission at 25 °C in triplicate. […]
2.8 Investigation of bioluminescence kinetics using stopped-flow luminometry
reactions were investigated using a stopped-flow spectrophotometer (employing a light-off mode for detecting the luminescence). One

Pmluc-WT [14] = assay: BL emission spectra of luciferase-luciferin reactions; format: biochemical, Pyrocoelia miyako; details: 100 mM HEPES pH 8.0, 25 °C
Procedure: as §1, §2, §3, §5

Fluc-ApCPP complex = Fluc-ApCPP complex (Photinus pyralis, UniProt P08659); assay: biochemical; format: binding; details: ITC
luciferases = details: cited from earlier work
[15] = concentration range tested 0-300

Sequence of Fluc-ApCPP complex (P08659 whole entry, one chain of several): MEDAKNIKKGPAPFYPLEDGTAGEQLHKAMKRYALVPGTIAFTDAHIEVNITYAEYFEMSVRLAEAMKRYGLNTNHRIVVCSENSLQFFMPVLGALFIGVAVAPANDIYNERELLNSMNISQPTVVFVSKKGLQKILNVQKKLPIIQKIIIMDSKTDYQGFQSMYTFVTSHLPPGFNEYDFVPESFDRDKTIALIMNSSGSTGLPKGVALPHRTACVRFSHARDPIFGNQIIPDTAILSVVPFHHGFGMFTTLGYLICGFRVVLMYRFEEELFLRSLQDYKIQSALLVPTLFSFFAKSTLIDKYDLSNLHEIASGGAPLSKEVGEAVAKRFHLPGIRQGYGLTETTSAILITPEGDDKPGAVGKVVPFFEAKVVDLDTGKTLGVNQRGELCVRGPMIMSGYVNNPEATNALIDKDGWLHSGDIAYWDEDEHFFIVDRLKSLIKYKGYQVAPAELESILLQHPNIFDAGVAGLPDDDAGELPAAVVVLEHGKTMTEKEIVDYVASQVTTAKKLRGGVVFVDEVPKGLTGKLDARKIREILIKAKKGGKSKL
T1 sequence (P08659 whole entry): as the sequence (P08659 whole entry, one chain of several) above

Compound	appKm (Eluc [2])	Relative kcat (Eluc [2])	Absorption (λmax) [3]	appKm (Pmluc-WT [4])	Relative kcat (Pmluc-WT [4])	Bioluminescence wavelength (BLλ) (Pmluc-N230S [5])	Bioluminescence wavelength (BLλ) (Fluc [6])	appKm (Pmluc-N230S [7])	Relative kcat (Pmluc-N230S [7])	appKm (SLR [8])	Relative kcat (SLR [8])	Bioluminescence wavelength (BLλ) (SLR [9])	appKm (Fluc [10])	Relative kcat (Fluc [10])	Bioluminescence wavelength (BLλ) (Eluc [11])	Bioluminescence wavelength (BLλ) (Pmluc-WT [14])	Fluorescence (λem) [3]	further results
CN(C)c1ccc(/C=C/C=C/C2=N[C@@H](C(=O)O)CS2)cc1.Cl [AkaLumine–HCl]																		Quantum yield (Fluc [1]): 4.0 ± 0.5%
COc1cc2nc(C3=N[C@@H](C(=O)O)CS3)sc2c(OC)c1O [Compound 2d, 5′,7′-dimethoxy-D-luciferin]	34.7 µM	0.1	412 nm	0.2 µM	~ 0.02	646 nm	625 nm	13.3 µM	0.2	5.0 µM	0.8	> 630 nm	0.2 µM	1.3	596 nm	582 nm		Substrate inhibition (Pmluc-WT [4]; [15]): > 0.8 µM; Substrate inhibition (SLR [8]; [15]): > 16.6 µM; Bioluminescence wavelength (BLλ) (SLR [9]; listed as 5′,7′-dimethoxy-D-LH2): 663 nm; Substrate inhibition (Fluc [10]; [15]): > 0.8 µM; N site (Fluc [12]): 0.42; G (free energy of binding) (Fluc [12]; 25 °C): -6.18 kcal/mol; H (enthalpy of binding) (Fluc [12]; 25 °C): -5.24 kcal/mol; Kd (Fluc [12]; Table S9): 30.4 µM; Observed rate constant (kobs) Light decay Faster phase (Fluc [13]): 0.50 ± 0.00 s⁻¹; Observed rate constant (kobs) Light formation (Fluc [13]): 8.13 ± 0.08 s⁻¹
Cc1cc(O)c(C)c2sc(C3=N[C@@H](C(=O)O)CS3)nc12 [Compound 2e, 4′,7′-dimethyl-D-LH2]	19.1 µM	0.2	330 nm	10.2 µM	1.2	631 nm	636 nm	6.6 µM	6.3	9.0 µM	5.5	644 nm	7.1 µM	1.0	583 nm	637 nm	560 nm and 523–560 nm	Kd (Fluc-ApCPP complex; 25 °C, preformed Fluc-ApCPP complex, read-out: Dissociation constant (Kd) Fluc-ApCPP: Luciferin): 864 ± 7 µM; N site (Fluc-ApCPP complex; Fluc-ApCCP): 0.90; G (free energy of binding) (Fluc-ApCPP complex; Fluc-ApCCP, 25 °C): -4.41 kcal/mol; H (enthalpy of binding) (Fluc-ApCPP complex; Fluc-ApCCP, 25 °C): -80.0 kcal/mol
Cc1c(O)c2ccccc2c2nc(C3=N[C@@H](C(=O)O)CS3)sc12 [Compound 2f, 7′-methylnaphthol-D-luciferin]	24.7 µM	0.0	437 nm				648 nm and > 630 nm		~ 0.01	11.6 µM	1.1	634 nm	2.7 µM	0.1	557 nm		580 nm	
infraluciferin																		Longest BL wavelength (luciferases): > 700 nm
